Tests used:
[1] = biological target: T1, human AXL (473-end) (Homo sapiens, UniProt P30530); test: HTRF kinase activity biochemical assay, AXL; details: recombinant kinase, 10 uM ATP, 30 minutes pre-incubation; read-out: HTRF AXL IC50;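 also: phosphorylation of a biotinylated tyrosine kinase substrate detected via Eu3+-cryptate anti-TK antibody and streptavidin-XL665, fluorescence read after a 1 h incubation at room temperature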
T1 construct: human AXL (473-end); purchased SignalChem, Canada
T1 sequence (P30530 473-894 limits assumed): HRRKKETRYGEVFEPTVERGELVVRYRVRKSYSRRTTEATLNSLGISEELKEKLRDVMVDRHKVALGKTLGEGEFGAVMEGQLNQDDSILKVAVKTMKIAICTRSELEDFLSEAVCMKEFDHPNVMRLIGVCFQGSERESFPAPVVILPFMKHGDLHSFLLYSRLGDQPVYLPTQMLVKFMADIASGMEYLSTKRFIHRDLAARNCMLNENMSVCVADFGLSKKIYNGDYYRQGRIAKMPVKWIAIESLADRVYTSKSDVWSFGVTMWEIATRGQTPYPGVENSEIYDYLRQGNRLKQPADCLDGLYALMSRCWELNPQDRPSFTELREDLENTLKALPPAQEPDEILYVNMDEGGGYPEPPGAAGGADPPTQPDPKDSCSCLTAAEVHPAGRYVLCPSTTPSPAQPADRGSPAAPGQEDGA

[2] = biological target: T2, TYRO3 (455-end) (Homo sapiens, UniProt Q06418); test: HTRF kinase activity biochemical assay, TYRO3; details: recombinant kinase, 10 uM ATP, 30 minutes pre-incubation; read-out: HTRF TYRO IC50;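 also: biotinylated tyrosine kinase substrate phosphorylation detected via streptavidin-XL665 and Eu3+-cryptate anti-phospho antibody time-resolved fluorescence, read after 1 h detection at room temperature, 384-well format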
T2 construct: TYRO3 (455-end); purchased SignalChem, Canada
T2 sequence (Q06418 455-890 limits assumed): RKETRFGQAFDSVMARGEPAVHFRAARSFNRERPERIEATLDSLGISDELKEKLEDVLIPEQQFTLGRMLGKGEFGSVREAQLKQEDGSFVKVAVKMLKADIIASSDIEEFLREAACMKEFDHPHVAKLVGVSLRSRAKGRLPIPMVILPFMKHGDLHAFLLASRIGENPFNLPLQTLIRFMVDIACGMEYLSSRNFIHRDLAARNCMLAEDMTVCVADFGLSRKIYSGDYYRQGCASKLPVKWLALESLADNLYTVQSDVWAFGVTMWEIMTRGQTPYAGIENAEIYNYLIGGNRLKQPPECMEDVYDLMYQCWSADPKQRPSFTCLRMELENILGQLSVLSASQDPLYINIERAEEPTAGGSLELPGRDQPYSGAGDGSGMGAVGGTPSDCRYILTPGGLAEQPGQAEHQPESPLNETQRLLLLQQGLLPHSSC

[3] = biological target: T3, human MER (528-end) (Homo sapiens, UniProt Q12866); test: HTRF kinase activity biochemical assay, MER; details: recombinant kinase, 10 uM ATP, 30 minutes pre-incubation; read-out: HTRF MERTK IC50;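 also: phosphorylation of a biotin-tagged tyrosine kinase substrate detected by Eu3+-cryptate antibody and streptavidin-XL665 time-resolved fluorescence, read after 1 h at room temperature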
T3 construct: human MER (528-end); purchased Carnabio, Japan
T3 sequence (Q12866 528-999 limits assumed): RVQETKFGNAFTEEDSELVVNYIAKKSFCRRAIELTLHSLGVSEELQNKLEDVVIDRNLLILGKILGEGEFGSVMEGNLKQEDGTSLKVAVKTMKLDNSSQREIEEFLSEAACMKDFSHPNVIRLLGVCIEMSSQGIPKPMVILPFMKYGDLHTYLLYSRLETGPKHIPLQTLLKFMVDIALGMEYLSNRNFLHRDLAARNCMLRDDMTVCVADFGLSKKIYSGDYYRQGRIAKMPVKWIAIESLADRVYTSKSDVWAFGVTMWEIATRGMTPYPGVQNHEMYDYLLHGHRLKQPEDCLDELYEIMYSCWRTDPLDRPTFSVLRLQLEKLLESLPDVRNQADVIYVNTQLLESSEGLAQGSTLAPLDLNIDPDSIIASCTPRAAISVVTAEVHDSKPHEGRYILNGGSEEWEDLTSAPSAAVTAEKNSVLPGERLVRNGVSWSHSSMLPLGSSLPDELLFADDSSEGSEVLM

## Cn1cc(Nc2ncc(C3CN(c4nc5ccc(OCC#N)cc5o4)C3)nc2C(N)=O)cn1 [Example 24, 6-{1-[6-(cyanomethoxy)-1,3-benzoxazol-2-yl]azetidin-3-yl}-3-[(1-methyl-1H-pyrazol-4-yl)amino]pyrazine-2-carboxamide]
[1]
  IC50: 3 nM
[2]
  IC50: 130 nM
[3]
  IC50: 2 nM

## Cn1cc(Nc2ncc(C3CN(c4nc5ccc(CC(CO)CO)cc5o4)C3)nc2C(N)=O)cn1 [Example 25, 6-(1-{6-[3-hydroxy-2-(hydroxymethyl)propyl]-1,3-benzoxazol-2-yl}azetidin-3-yl)-3-[(1-methyl-1H-pyrazol-4-yl)amino]pyrazine-2-carboxamide]
[1]
  IC50: 10 nM
[2]
  IC50: 1100 nM
[3]
  IC50: 7 nM

## CCOC(=O)COc1ccc2nc(N3CC(c4cnc(Nc5cnn(C)c5)c(C(N)=O)n4)C3)oc2c1 [Example 26, ethyl {[2-(3-{6-carbamoyl-5-[(1-methyl-1H-pyrazol-4-yl)amino]pyrazin-2-yl}azetidin-1-yl)-1,3-benzoxazol-6-yl]oxy}acetate]
[1]
  IC50: 3 nM
[2]
  IC50: 94 nM
[3]
  IC50: < 1 nM

## NC(=O)c1nc(C2CN(c3nc4ccc(F)cc4o3)C2)cnc1Nc1cnn(C2CCOCC2)c1 [Example 27, 6-[1-(6-fluoro-1,3-benzoxazol-2-yl)azetidin-3-yl]-3-{[1-(oxan-4-yl)-1H-pyrazol-4-yl]amino}pyrazine-2-carboxamide]
[1]
  IC50: 3 nM
[2]
  IC50: 82 nM
[3]
  IC50: 1 nM

## COCCn1cc(Nc2ncc(C3CN(c4nc5ccccc5o4)C3)nc2C(N)=O)cn1 [Example 29, 6-[1-(1,3-benzoxazol-2-yl)azetidin-3-yl]-3-{[1-(2-methoxyethyl)-1H-pyrazol-4-yl]amino}pyrazine-2-carboxamide]
[1]
  IC50: 10 nM
[2]
  IC50: 340 nM
[3]
  IC50: 5 nM

## Cn1cc(Nc2ncc(C3CN(c4nc5ccc(CCCO)cc5o4)C3)nc2C(N)=O)cn1 [Example 32, 6-{1-[6-(3-hydroxypropyl)-1,3-benzoxazol-2-yl]azetidin-3-yl}-3-[(1-methyl-1H-pyrazol-4-yl)amino]pyrazine-2-carboxamide]
[1]
  IC50: 3 nM
[2]
  IC50: 190 nM
[3]
  IC50: 1 nM

## Cn1cc(Nc2ncc(C3CN(c4nc5ccc(/C=C/CO)cc5o4)C3)nc2C(N)=O)cn1 [Example 32A, 6-(1-{6-[(1E)-3-hydroxyprop-1-en-1-yl]-1,3-benzoxazol-2-yl}azetidin-3-yl)-3-[(1-methyl-1H-pyrazol-4-yl)amino]pyrazine-2-carboxamide]
[1]
  IC50: 2 nM
[2]
  IC50: 140 nM
[3]
  IC50: < 1 nM

## COCCCc1ccc2nc(N3CC(c4cnc(Nc5cnn(C)c5)c(C(N)=O)n4)C3)oc2c1 [Example 33, 6-{1-[6-(3-methoxypropyl)-1,3-benzoxazol-2-yl]azetidin-3-yl}-3-[(1-methyl-1H-pyrazol-4-yl)amino]pyrazine-2-carboxamide]
[1]
  IC50: 2 nM
[2]
  IC50: 130 nM
[3]
  IC50: 1 nM

## CN(C)C(=O)Cn1cc(Nc2ncc(C3CN(c4nc5ccccc5o4)C3)nc2C(N)=O)cn1 [Example 34, 6-[1-(1,3-benzoxazol-2-yl)azetidin-3-yl]-3-({1-[2-(dimethylamino)-2-oxoethyl]-1H-pyrazol-4-yl}amino)pyrazine-2-carboxamide]
[1]
  IC50: 19 nM
[2]
  IC50: 620 nM
[3]
  IC50: 8 nM

## NC(=O)c1nc(C2CN(c3nc4ccc(F)cc4o3)C2)cnc1Nc1cnn(CC(O)CO)c1 (stereo not drawn) [Example 36, 3-{[1-(2,3-dihydroxypropyl)-1H-pyrazol-4-yl]amino}-6-[1-(6-fluoro-1,3-benzoxazol-2-yl)azetidin-3-yl]pyrazine-2-carboxamide]
[1]
  IC50: 9 nM
[2]
  IC50: 170 nM
[3]
  IC50: 1 nM

## NC(=O)c1nc(C2CN(c3nc4ccc(F)cc4o3)C2)cnc1Nc1cn[nH]c1 [Example 36C, 6-[1-(6-fluoro-1,3-benzoxazol-2-yl)azetidin-3-yl]-3-[(1H-pyrazol-4-yl)amino]pyrazine-2-carboxamide]
[1]
  IC50: 3 nM
[2]
  IC50: > 10000 nM
[3]
  IC50: 1 nM

## CC1(C)OCC(Cn2cc(Nc3ncc(C4CN(c5nc6ccc(F)cc6o5)C4)nc3C(N)=O)cn2)O1 (stereo not drawn) [Example 36D, 3-({1-[(2,2-dimethyl-1,3-dioxolan-4-yl)methyl]-1H-pyrazol-4-yl}amino)-6-[1-(6-fluoro-1,3-benzoxazol-2-yl)azetidin-3-yl]pyrazine-2-carboxamide]
[1]
  IC50: 10 nM
[2]
  IC50: 430 nM
[3]
  IC50: 3 nM

## Cn1cc(Nc2ncc(C3CN(c4nc5ccc(OCC(N)=O)cc5o4)C3)nc2C(N)=O)cn1 [Example 37, 6-{1-[6-(2-amino-2-oxoethoxy)-1,3-benzoxazol-2-yl]azetidin-3-yl}-3-[(1-methyl-1H-pyrazol-4-yl)amino]pyrazine-2-carboxamide]
[1]
  IC50: 29 nM
[2]
  IC50: 2130 nM
[3]
  IC50: 10 nM

## Cn1cc(Nc2ncc(C3CN(c4nc5ccc(OCCO)cc5o4)C3)nc2C(N)=O)cn1 [Example 40, 6-{1-[6-(2-hydroxyethoxy)-1,3-benzoxazol-2-yl]azetidin-3-yl}-3-[(1-methyl-1H-pyrazol-4-yl)amino]pyrazine-2-carboxamide]
[1]
  IC50: 8 nM
[2]
  IC50: 460 nM
[3]
  IC50: 2 nM

## Cn1cc(Nc2ncc(C3CN(c4nc5ccc(OCC6COC6)cc5o4)C3)nc2C(N)=O)cn1 [Example 41, 3-[(1-methyl-1H-pyrazol-4-yl)amino]-6-(1-{6-[(oxetan-3-yl)methoxy]-1,3-benzoxazol-2-yl}azetidin-3-yl)pyrazine-2-carboxamide]
[1]
  IC50: 2 nM
[2]
  IC50: 210 nM
[3]
  IC50: < 1 nM

## Cn1cc(Nc2ncc(C3CN(c4nc5ccc(OCC6CC(O)C6)cc5o4)C3)nc2C(N)=O)cn1 (stereo not drawn) [Example 42, 6-(1-{6-[(3-hydroxycyclobutyl)methoxy]-1,3-benzoxazol-2-yl}azetidin-3-yl)-3-[(1-methyl-1H-pyrazol-4-yl)amino]pyrazine-2-carboxamide]
[1]
  IC50: 2 nM
[2]
  IC50: 64 nM
[3]
  IC50: < 1 nM

## Cn1cc(Nc2ncc(C3CN(c4nc5ccc(OCC(O)CO)cc5o4)C3)nc2C(N)=O)cn1 (stereo not drawn) [Example 43, 6-{1-[6-(2,3-dihydroxypropoxy)-1,3-benzoxazol-2-yl]azetidin-3-yl}-3-[(1-methyl-1H-pyrazol-4-yl)amino]pyrazine-2-carboxamide]
[1]
  IC50: 25 nM
[2]
  IC50: 2140 nM
[3]
  IC50: 9 nM

## Cn1cc(Nc2ncc(C3CN(c4nc5ccc(OCC6(O)CCC6)cc5o4)C3)nc2C(N)=O)cn1 [Example 44, 6-(1-{6-[(1-hydroxycyclobutyl)methoxy]-1,3-benzoxazol-2-yl}azetidin-3-yl)-3-[(1-methyl-1H-pyrazol-4-yl)amino]pyrazine-2-carboxamide]
[1]
  IC50: 2 nM
[2]
  IC50: 110 nM
[3]
  IC50: < 1 nM

## Cn1cc(Nc2ncc(C3CN(c4nc5ccc(CCC6(O)COC6)cc5o4)C3)nc2C(N)=O)cn1 [Example 45, 6-(1-{6-[2-(3-hydroxyoxetan-3-yl)ethyl]-1,3-benzoxazol-2-yl}azetidin-3-yl)-3-[(1-methyl-1H-pyrazol-4-yl)amino]pyrazine-2-carboxamide]
[1]
  IC50: 9 nM
[2]
  IC50: 620 nM
[3]
  IC50: 3 nM

## Cn1cc(Nc2ncc(C3CN(c4nc5ccc(C(=O)N6CCOCC6)cc5o4)C3)nc2C(N)=O)cn1 [Example 46, 3-[(1-methyl-1H-pyrazol-4-yl)amino]-6-{1-[6-(morpholine-4-carbonyl)-1,3-benzoxazol-2-yl]azetidin-3-yl}pyrazine-2-carboxamide]
[1]
  IC50: 9 nM
[2]
  IC50: 9 nM
[3]
  IC50: 3 nM

— patent publication US20260232658A1, “AZETIDINYL BENZOXAZOLE COMPOUNDS AND THEIR USE AS MER AND AXL INHIBITORS” (DONG-A ST CO., LTD., priority 2022, published 2026)
